In patent publication US20090088340A1, “METHODS FOR PREDICTING THE REDUCTION/OXIDATION (REDOX) REACTION ACTIVITY OF METAL COMPLEXES” (WESTERN CAROLINA UNIVERSITY, priority 2007, published 2009):
Read-outs that look alike come from different tables or passages of the source. Marks after values point to notes of the source that are not given here.

Experiments:
Cu/Zn SOD [1] = target: T1, Cu/Zn SOD (Homo sapiens, UniProt P00441); assay: Reaction of Cu/Zn SOD with superoxide in the presence of an inhibitor; type: biochemical; conditions: 100 μM, 20 mM phosphate buffered saline pH 7.2 (neutral conditions)
T1 sequence (P00441 whole entry): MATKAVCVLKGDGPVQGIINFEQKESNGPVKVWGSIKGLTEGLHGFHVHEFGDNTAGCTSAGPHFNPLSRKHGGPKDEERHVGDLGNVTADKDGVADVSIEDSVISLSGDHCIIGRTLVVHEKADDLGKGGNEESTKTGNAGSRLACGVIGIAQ
Protocol: SOD was added to give an NMR relaxation rate of 28 s^−1. […] See Huang et al., Nature, 2000, 407, 390-395. […] It was also determined that under these conditions, reaction of the enzyme with superoxide was not inhibited.

Cu/Zn SOD [2] = target: T1, Cu/Zn SOD; conditions: 100 μM; Huang et al., Nature 2000; cited from earlier work
[3] = Metal/fluoride association from F^− 19F NMR transverse relaxation enhancement (CPMG); type: physicochemical; conditions: for kapp,X− (Flouride Association Reaction) / ΔH^‡ (Flouride Association Reaction): iron(III) complexes; for kapp,X− (Flouride Association Reaction) / kapp,X− (Anion Binding Data): 25° C., 90% H2O/10% D2O; for ΔH^‡ (Flouride Association Reaction): activation enthalpy; for ΔH^‡ (Anion Binding Data): manganese(II) complexes; for ΔH^‡ (Anion Binding Data) / kapp,X− (Anion Binding Data): metal/F^− association
Description: CPMG is the standard technique for measuring transverse NMR relaxation times (T2). See, for example, Braun et al., “150 and More Basic NMR Experiments,” Wiley-VCH Weinheim, 1998, page 159.
Rate constants for metal/probe association reactions can be related directly to the effects of the metal complex on the NMR relaxation rates of probe nuclei.
R2,obs−R2,dia=kapp,F−[M] (6)
where R2,dia is the relaxation rate in diamagnetic solution and kapp,F− is the apparent second order rate constant for metal/F^− association. The effects of eleven paramagnetic metal complexes, Fe^IIIEDTA(H2O)^−, Fe^IIIEDTA(OH)^2−, Fe^IIIPDTA^−, Fe^IIIDTPA^2−, Fe^III2O(TTHA)^2−, Fe^III(CN)6^3−, Mn^IIEDTA(H2O)^2−, Mn^IIPDTA^2−, Mn^IIβ-EDDADP^2−, Mn^IIPO4^−, and Cu/Zn SOD on F^− ion ^19F NMR transverse relaxation rates (R2=1/T2) were studied in aqueous solutions as a function of temperature.
Without being bound to any one theory, the curvature of the plot can arise from a similarity in the magnitudes of outer-sphere and inner-sphere contributions to relaxation (R2,OS and R2,IS). See Dwek, R. A., Nuclear Magnetic Resonance in Biochemistry, Clarendon, Oxford, 1973. […] See Dwek, R. A., Nuclear Magnetic Resonance in Biochemistry, Clarendon, Oxford, 1973. To estimate the contribution of R2,OS, relaxation enhancement of the ^19F resonance of the trifluoroacetate anion (tfa) by Fe^IIIDTPA^2− was measured. R2,IS for the tfa resonance should be negligible due to the low basicity of the anion and the absence of a through bond pathway for magnetic interaction between the paramagnetic center and the ^19F nuclei. For the tfa resonance, R2,obs decreased with increasing temperature consistent with an outer-sphere interaction.
where α, β, and γ are constants. The γ term for F^− relaxation in Equation 7 was set equal to the slope of the least squares line for the tfa data, and ΔH^‡, α, and β were refined to give the curved trend line following the F^− data in FIG. 6. Dashed lines (a) and (b) in FIG. 6 represent the predicted outer-sphere and inner-sphere contributions to the relaxation rate, respectively. The 25° C. association rate constant and activation enthalpy in Table 1 (and used in FIG. 2) are from this refinement.

[4] = cited from earlier work; for kapp,O2− (Superoxide Reaction): iron(III) complexes, aqueous solution, literature values (footnotes b, c, d, f); for kapp,O2,A (Superoxide Reaction Data): full value printed in cell
[5] = trend line of FIG. 8; pH 4.0 to 9.2
Protocol: While Fe^IIIEDTA(OH)^2− is usually formed by deprotonation of coordinated water, its formation can also be thought of (in thermodynamic terms) as a ligand exchange. To investigate the thermodynamics of the formation of Fe^IIIEDTA(OH)^2−, the reaction of F^− with Fe^IIIEDTA(H2O)^− was studied as a function of pH. For Fe^IIIEDTA(H2O)^−, relaxation enhancements were measured for thirteen buffer conditions, having pH values ranging from 4.0 to 9.2. […] In this pH range, F^− 19F relaxation enhancement is governed by two protic equilibria, hydrolysis of Fe^IIIEDTA(H2O)^− and protonation of F^−, as described by Equations 9 and 10:
Fitting the data at pH>6 gives the thermodynamic equilibrium data for hydroxide binding.

[6] = MeOPH^− association; from Summers et al. 2001; cited from earlier work
[7] = Reaction of metal complexes with superoxide (pulse radiolysis and literature rate data); type: physicochemical; conditions: manganese(II) complexes, pulse radiolysis; for kapp,O2,B × 10^−2 (Superoxide Reaction Data): printed value is k × 10^−2; for kapp,O2,A × 10^−7 (Superoxide Reaction Data): printed value is k × 10^−7
Protocol: In addition, the rates at which O2.^− reacts with Fe^IIIPDTA^−, Mn^IIEDTA(H2O)^2−, Mn^IIPDTA^2−, and Mn^IIβ-EDDADP^2− were determined by pulse radiolysis. […] The data for the SOD enzyme was previously reported. See Viglino et al., J. Magn. Res., 1979, 34, 265. These reactivity patterns are consistent with literature precedents for similar complexes.
Rapid reactions of Fe^3+ with superoxide (O2.^−) appear to occur via inner-sphere mechanisms where metal/O2.^− association is rate limiting. Under this scenario, rates of metal/O2.^− reactions are expected to correlate with rates at which the metal complexes coordinate F^−.
In addition to metal/F^− association data, FIG. 2 includes published rate data for reactions of a water soluble manganese(III) porphyrin (Mn^IIITM-2-PyP^5+). One of the gray squares in FIG. 2 compares the rate of metal/MeOPH association to the catalytic rate constant for O2.^− dissmutation (kcat) for Mn^IIITM-2-PyP^5+. See Summers et al., Inorg. Chem., 2001, 40, 6547. Values of kcat for manganese(III) porphyrins are thought to be limited by rates of Mn^3+ reduction. See Batinic-Haberle et al., Inorg. Chem., 1999, 38, 4011-4022.

SOD = SOD (Bos taurus, UniProt P00442); conditions: from Viglino et al. 1979; cited from earlier work
Chain of SOD (P00442 2-152 limits assumed): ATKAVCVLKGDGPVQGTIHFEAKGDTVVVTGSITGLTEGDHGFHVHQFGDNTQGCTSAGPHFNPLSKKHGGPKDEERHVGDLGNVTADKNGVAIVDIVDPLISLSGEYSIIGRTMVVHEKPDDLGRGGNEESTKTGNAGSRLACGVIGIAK

COc1cc2c(cc1O)CC[C@@H]1[C@@H]2CC[C@]2(C)[C@@H](O)CC[C@@H]12 [Complex 2ME2, 2-methoxyestradiol]
reaction of the enzyme with superoxide (Cu/Zn SOD [1]): not inhibited | inhibition of Cu/Zn SOD previously reported (Cu/Zn SOD [2]): complete inhibition

O=C([O-])CN(CCN(CCN(CC(=O)[O-])CC(=O)[O-])CC(=O)[O-])CCN(CC(=O)[O-])CC(=O)[O-].[Fe+3].[Fe+3].[O-2] [Fe^III2O(TTHA)^2−]
kapp,X− (Flouride Association Reaction) ([3]; pH 6): 12 M⁻¹ s⁻¹ | ΔH^‡ (Flouride Association Reaction) [3]: 39 kJ/mol | kapp,O2− (Superoxide Reaction) [4]: 1.2 × 10^4 (d) M^−1s^−1

O=C([O-])CN(CCN(CC(=O)[O-])CC(=O)[O-])CCN(CC(=O)[O-])CC(=O)[O-].[Fe+3] [Fe^IIIDTPA^2−, iron (III) diethylenetriaminepentaacetate]
kapp,X− (Flouride Association Reaction) ([3]; pH 6): 240 M⁻¹ s⁻¹ | ΔH^‡ (Flouride Association Reaction) [3]: 22 kJ/mol | kapp,O2− (Superoxide Reaction) [4]: 6 × 10^3 (c) M^−1s^−1

O.O=C([O-])CN(CCN(CC(=O)[O-])CC(=O)[O-])CC(=O)[O-].[Fe+3] [Fe^IIIEDTA(H2O)^−, iron (III) ethylenediamine-N,N,N″,N″-tetraacetic acid hydrate]
kapp,X− (Flouride Association Reaction) ([3]; pH 6): 93000 M⁻¹ s⁻¹ | ΔH^‡ (Flouride Association Reaction) [3]: 39 kJ/mol | apparent rate constant for F^− association ([3]; trend line of FIG. 8, pH 4.0 to 9.2): 4e+06 M⁻¹ s⁻¹ | kapp,O2− (Superoxide Reaction) [4]: 1.9 × 10^6 (f) M^−1s^−1 | apparent rate constant for HF association [5]: 93000 M⁻¹ s⁻¹

O.O.O.O.O.O.[Mn+2] [Mn^II(H2O)6^2+]
kapp,X− (Anion Binding Data) [6]: 5.8 × 10^6 (e) M^−1s^−1 | ΔH^‡ (Anion Binding Data) [6]: 47 ^(e) kJ/mol | kapp,O2,A (Superoxide Reaction Data) ([4]; from Pick-Kaplan and Rabini): 1.1 × 10^8 (f) M^−1s^−1

O.O=C([O-])CN(CCN(CC(=O)[O-])CC(=O)[O-])CC(=O)[O-].[Mn+2] [Mn^IIEDTA(H2O)^2−]
kapp,O2,B × 10^−2 (Superoxide Reaction Data) [7]: 4.0 ± 0.8 s^−1 | kapp,O2,A × 10^−7 (Superoxide Reaction Data) [7]: 1.24 ± 0.24 M^−1s^−1 | ΔH^‡ (Anion Binding Data) [3]: 31 kJ/mol | kapp,X− (Anion Binding Data) ([3]; pH 7): 60000 M⁻¹ s⁻¹

O=P([O-])([O-])[O-].[Mn+2] [Mn^IIPO4 ^−]
ΔH^‡ (Anion Binding Data) [3]: 42 kJ/mol | kapp,X− (Anion Binding Data) ([3]; pH 6): 1.8 × 10^6 (b) M^−1s^−1 | kapp,O2,A (Superoxide Reaction Data) ([4]; pH 6, from Cabelli and Bielski): 5.0 × 10^7 (b,c) M^−1s^−1

O=C([O-])CCN(CCN(CCC(=O)[O-])CC(=O)[O-])CC(=O)[O-].[Mn+2] [Mn^IIβ-EDDADP^2−]
kapp,O2,B × 10^−2 (Superoxide Reaction Data) [7]: 3.5 ± 0.7 s^−1 | kapp,O2,A × 10^−7 (Superoxide Reaction Data) [7]: 1.95 ± 0.40 M^−1s^−1 | ΔH^‡ (Anion Binding Data) [3]: 22 kJ/mol | kapp,X− (Anion Binding Data) ([3]; pH 7): 130000 M⁻¹ s⁻¹

F [fluoride, fluoride anion]
association constant for fluoride binding (SOD): 1.2 M⁻¹
